From the supplement of paper PMC11061612

Key:
Carboplatin = compound: C1CC(C1)(C(=O)[O-])C(=O)[O-].N.N.[Pt+2] [Carboplatin]; settings: max 10 µM
Method in brief: (§1)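 In 1536-well plates, cancer cell lines in 7.5 μl DMEM/F12 or RPMI with 10% FBS spent 24 hours at 37°C and 5% CO2 and were then dosed for 72 hours with final DMSO typically 0.2%. Viability was read by CellTiter-Glo 2.0 luminescence and scaled between blank-well and DMSO-well means. The single-agent IC50 was fitted from dose responses using a logistic curve in a non-linear mixed effects model, and that logistic curve had two parameters.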

AZD5363 = compound: C1CN(CCC1(C(=O)N[C@@H](CCO)C2=CC=C(C=C2)Cl)N)C3=NC=NC4=C3C=CN4 [AZD5363]; settings: max 10 µM
Method in brief: as §1

AZD1775 = compound: C=CCn1c(=O)c2cnc(Nc3ccc(N4CCN(C)CC4)cc3)nc2n1-c1cccc(C(C)(C)O)n1 [AZD1775]; settings: max 3 µM
Method in brief: as §1

Trametinib = compound: CC(=O)Nc1cccc(-n2c(=O)n(C3CC3)c(=O)c3c(Nc4ccc(I)cc4F)n(C)c(=O)c(C)c32)c1 [Trametinib]; settings: max 1 µM
Method in brief: as §1

Paclitaxel = compound: CC(=O)O[C@H]1C(=O)[C@@]2(C)[C@H]([C@H](OC(=O)c3ccccc3)[C@]3(O)C[C@H](OC(=O)[C@H](O)[C@@H](NC(=O)c4ccccc4)c4ccccc4)C(C)=C1C3(C)C)[C@]1(OC(C)=O)CO[C@@H]1C[C@@H]2O [Paclitaxel]; settings: max 3 µM
Method in brief: as §1

Palbociclib = compound: CC(=O)c1c(C)c2cnc(Nc3ccc(N4CCNCC4)cn3)nc2n(C2CCCC2)c1=O [Palbociclib]; settings: max 10 µM
Method in brief: as §1

AZD1390 = compound: CC(C)n1c(=O)n(C)c2cnc3cc(F)c(-c4ccc(OCCCN5CCCCC5)nc4)cc3c21 [AZD1390]; settings: max 0.3 µM
Method in brief: as §1

Venetoclax = compound: CC1(C)CCC(CN2CCN(c3ccc(C(=O)NS(=O)(=O)c4ccc(NCC5CCOCC5)c([N+](=O)[O-])c4)c(Oc4cnc5[nH]ccc5c4)c3)CC2)=C(c2ccc(Cl)cc2)C1 [Venetoclax]; settings: max 1 µM
Method in brief: as §1

Dasatinib = compound: CC1=C(C(=CC=C1)Cl)NC(=O)C2=CN=C(S2)NC3=CC(=NC(=N3)C)N4CCN(CC4)CCO [Dasatinib]; settings: max 2 µM
Method in brief: as §1

SG3199 = compound: CC1=CN2[C@@H](C1)C=NC3=CC(=C(C=C3C2=O)OC)OCCCCCOC4=C(C=C5C(=C4)N=C[C@@H]6CC(=CN6C5=O)C)OC [SG3199]; settings: max 0.001 µM
Method in brief: as §1

AZD2811 = compound: CCN(CCO)CCCOc1ccc2c(Nc3cc(CC(=O)Nc4cccc(F)c4)[nH]n3)ncnc2c1 [AZD2811]; settings: max 1 µM
Method in brief: as §1

SN-38 = compound: CCc1c2c(nc3ccc(O)cc13)-c1cc3c(c(=O)n1C2)COC(=O)[C@]3(O)CC [SN-38]; settings: max 0.3 µM
Method in brief: as §1

AZD0156 = compound: CN(C)CCCOc1ccc(-c2ccc3ncc4c(c3c2)n(C2CCOCC2)c(=O)n4C)cn1 [AZD0156]; settings: max 3 µM
Method in brief: as §1

AZD4320 = compound: CN(CC[C@H](CSC1=CC=CC=C1)NC2=C(C=C(C=C2)S(=O)(=O)NC(=O)C3=CC=C(C=C3)N4CCC(CC4)[C@H](C5=CC=CC=C5C6=CC=C(C=C6)Cl)O)S(=O)(=O)C(F)(F)F)CCO [AZD4320]; settings: max 1 µM
Method in brief: as §1

Alisertib = compound: COc1cc(Nc2ncc3c(n2)-c2ccc(Cl)cc2C(c2c(F)cccc2OC)=NC3)ccc1C(=O)O [Alisertib]; settings: max 10 µM
Method in brief: as §1

Etoposide = compound: COc1cc([C@@H]2c3cc4c(cc3[C@@H](O[C@@H]3O[C@@H]5CO[C@@H](C)O[C@H]5[C@H](O)[C@H]3O)[C@H]3COC(=O)[C@H]23)OCO4)cc(OC)c1O [Etoposide]; settings: max 10 µM
Method in brief: as §1

Gefitinib = compound: COc1cc2ncnc(Nc3ccc(F)c(Cl)c3)c2cc1OCCCN1CCOCC1 [Gefitinib]; settings: max 10 µM
Method in brief: as §1

Prexasertib = compound: COc1cccc(OCCCN)c1-c1cc(Nc2cnc(C#N)cn2)n[nH]1 [Prexasertib]; settings: max 1 µM
Method in brief: as §1

Doxorubicin = compound: COc1cccc2c1C(=O)c1c(O)c3c(c(O)c1C2=O)C[C@@](O)(C(=O)CO)C[C@@H]3O[C@H]1C[C@H](N)[C@H](O)[C@H](C)O1 [Doxorubicin]; settings: max 1 µM
Method in brief: as §1

AZD5153 = compound: COc1nnc2ccc(N3CCC(c4ccc(OCCN5CCN(C)C(=O)[C@H]5C)cc4)CC3)nn12 [AZD5153]; settings: max 1 µM
Method in brief: as §1

Lapatinib = compound: CS(=O)(=O)CCNCc1ccc(-c2ccc3ncnc(Nc4ccc(OCc5cccc(F)c5)c(Cl)c4)c3c2)o1 [Lapatinib]; settings: max 10 µM
Method in brief: as §1

AZD8186 = compound: C[C@@H](Nc1cc(F)cc(F)c1)c1cc(C(=O)N(C)C)cc2c(=O)cc(N3CCOCC3)oc12 [AZD8186]; settings: max 10 µM
Method in brief: as §1

Crizotinib = compound: C[C@@H](Oc1cc(-c2cnn(C3CCNCC3)c2)cnc1N)c1c(Cl)ccc(F)c1Cl [Crizotinib]; settings: max 10 µM
Method in brief: as §1

Savolitinib = compound: C[C@@H](c1ccc2nccn2c1)n1nnc2ncc(-c3cnn(C)c3)nc21 [Savolitinib]; settings: max 1 µM
Method in brief: as §1

AZD6738 = compound: C[C@@H]1COCCN1C2=NC(=NC(=C2)C3(CC3)[S@](=N)(=O)C)C4=C5C=CNC5=NC=C4 [AZD6738]; settings: max 10 µM
Method in brief: as §1

AZD5991 = compound: Cc1c2c(nn1C)CSCc1cc(n(C)n1)CSc1cc(c3ccccc3c1)OCCCc1c(C(=O)O)n(C)c3c-2c(Cl)ccc13 [AZD5991]; settings: max 1 µM
Method in brief: as §1

AZD7648 = compound: Cc1cc2ncnn2cc1Nc1ncc2c(n1)n(C1CCOCC1)c(=O)n2C [AZD7648]; settings: max 10 µM
Method in brief: as §1

Taselisib = compound: Cc1nc(-c2cn3c(n2)-c2ccc(-c4cnn(C(C)(C)C(N)=O)c4)cc2OCC3)n(C(C)C)n1 [Taselisib]; settings: max 10 µM
Method in brief: as §1

Selumetinib = compound: Cn1cnc2c(F)c(Nc3ccc(Br)cc3Cl)c(C(=O)NOCCO)cc21 [Selumetinib]; settings: max 10 µM
Method in brief: as §1

SRA737 = compound: N#Cc1cnc(Nc2cc(NC[C@H]3CNCCO3)c(C(F)(F)F)cn2)cn1 [SRA737]; settings: max 10 µM
Method in brief: as §1

MK-2206 = compound: NC1(c2ccc(-c3nc4ccn5c(=O)[nH]nc5c4cc3-c3ccccc3)cc2)CCC1 [MK-2206]; settings: max 10 µM
Method in brief: as §1

Gemcitabine = compound: Nc1ccn([C@@H]2O[C@H](CO)[C@@H](O)C2(F)F)c(=O)n1 [Gemcitabine]; settings: max 0.3 µM
Method in brief: as §1

[1] = compound: O=C(Nc1ccc2[nH]nc(-c3ccncc3)c2c1)[C@@H]1CCN(CC(=O)N2CCN(c3ccc(-c4ncccn4)cc3)CC2)C1; settings: max 5 µM
Method in brief: as §1

Olaparib = compound: O=C(c1cc(Cc2n[nH]c(=O)c3ccccc23)ccc1F)N1CCN(C(=O)C2CC2)CC1 [Olaparib]; settings: max 10 µM
Method in brief: as §1

5-Fluorouracil = compound: O=c1[nH]cc(F)c(=O)[nH]1 [5-Fluorouracil]; settings: max 20 µM
Method in brief: as §1

| Cell Line | IC50, cell viability 72 h (Carboplatin) | IC50, cell viability 72 h (AZD5363) | IC50, cell viability 72 h (AZD1775) | IC50, cell viability 72 h (Trametinib) | IC50, cell viability 72 h (Paclitaxel) | IC50, cell viability 72 h (Palbociclib) | IC50, cell viability 72 h (AZD1390) | IC50, cell viability 72 h (Venetoclax) | IC50, cell viability 72 h (Dasatinib) | IC50, cell viability 72 h (SG3199) | IC50, cell viability 72 h (AZD2811) | IC50, cell viability 72 h (SN-38) | IC50, cell viability 72 h (AZD0156) | IC50, cell viability 72 h (AZD4320) | IC50, cell viability 72 h (Alisertib) | IC50, cell viability 72 h (Etoposide) | IC50, cell viability 72 h (Gefitinib) | IC50, cell viability 72 h (Prexasertib) | IC50, cell viability 72 h (Doxorubicin) | IC50, cell viability 72 h (AZD5153) | IC50, cell viability 72 h (Lapatinib) | IC50, cell viability 72 h (AZD8186) | IC50, cell viability 72 h (Crizotinib) | IC50, cell viability 72 h (Savolitinib) | IC50, cell viability 72 h (AZD6738) | IC50, cell viability 72 h (AZD5991) | IC50, cell viability 72 h (AZD7648) | IC50, cell viability 72 h (Taselisib) | IC50, cell viability 72 h (Selumetinib) | IC50, cell viability 72 h (SRA737) | IC50, cell viability 72 h (MK-2206) | IC50, cell viability 72 h (Gemcitabine) | IC50, cell viability 72 h [1] | IC50, cell viability 72 h (Olaparib) | IC50, cell viability 72 h (5-Fluorouracil) |
| --- | --- | --- | --- | --- | --- | --- | --- | --- | --- | --- | --- | --- | --- | --- | --- | --- | --- | --- | --- | --- | --- | --- | --- | --- | --- | --- | --- | --- | --- | --- | --- | --- | --- | --- | --- |
| NCI-H1435 (Non-Small Cell Lung Carcinoma) | > 10000 nM | > 10000 nM | > 3000 nM | > 1000 nM | > 3000 nM | > 10000 nM | > 300 nM | > 1000 nM | > 2000 nM | > 1 nM | > 1000 nM | > 300 nM | > 3000 nM | 621 nM | > 10000 nM | > 10000 nM | > 10000 nM | > 1000 nM | > 1000 nM | > 1000 nM | > 10000 nM | > 10000 nM | > 10000 nM | > 1000 nM | > 10000 nM | > 1000 nM | > 10000 nM | > 10000 nM | > 10000 nM | > 10000 nM | > 10000 nM | > 300 nM | > 5000 nM | > 10000 nM | > 20000 nM |
| COR-L105 (Lung Adenocarcinoma) | > 10000 nM | > 10000 nM | 2080 nM | 244 nM | > 3000 nM | > 10000 nM | > 300 nM | > 1000 nM | > 2000 nM | > 1 nM | > 1000 nM | > 300 nM | > 3000 nM | > 1000 nM | > 10000 nM | > 10000 nM | 2490 nM | > 1000 nM | > 1000 nM | > 1000 nM | 6660 nM | > 10000 nM | > 10000 nM | > 1000 nM | > 10000 nM | > 1000 nM | > 10000 nM | 7360 nM | > 10000 nM | > 10000 nM | > 10000 nM | > 300 nM | > 5000 nM | > 10000 nM | > 20000 nM |
| NCI-H2023 (Non-Small Cell Lung Carcinoma) | > 10000 nM | > 10000 nM | 2020 nM | > 1000 nM | 531 nM | > 10000 nM | > 300 nM | > 1000 nM | > 2000 nM | > 1 nM | > 1000 nM | 110 nM | > 3000 nM | > 1000 nM | > 10000 nM | > 10000 nM | > 10000 nM | 30.6 nM | 225 nM | > 1000 nM | > 10000 nM | > 10000 nM | > 10000 nM | > 1000 nM | 3500 nM | > 1000 nM | > 10000 nM | 3870 nM | > 10000 nM | > 10000 nM | > 10000 nM | 134 nM | > 5000 nM | > 10000 nM | 11900 nM |
